# Measurements reported in patent US20160168540A1, “COMPOSITION FOR MAINTAINING PLATELET FUNCTION” (KYOTO UNIVERSITY, priority 2013, published 2016).
# Target: T1, TACE (ADAM17) (Homo sapiens, UniProt P78536)
# T1 construct: made in house; host or cells: mammalian cells or insect cells
# Assay: TACE (ADAM17) inhibition test
# Type: biochemical
# Settings: fluorescent synthetic substrate, 37° C. for 1.5 hours; read-out: TACE IC50
# From the text: The nucleotide sequence of TACE has been reported by Moss et al. (Moss, M. L. et al., Nature 1997, vol. 385, pp. 733-736). Based on this information, the cDNA of TACE was obtained according to the prescribed method from THP-1 cells or the like, and then incorporated the cDNA into an expression vector. Next, this vector was transformed into mammalian cells or insect cells, and TACE protein was expressed. The TACE protein was isolated, and used as an enzyme. Further, a fluorescent synthetic substrate Nma(N-methylanthranilic acid)-Leu-Ala-Gln-Ala-Val-Arg-Ser-Ser-Lys(Dnp(dinitrophenyl))-D-Arg-NH2 including the TACE-cleaved sequence of a membrane-bound TNF was used as a substrate. The enzyme reaction was carried out by adding 1.8 μL of a solution of the test substance to 90 μL of a fluorescent synthetic substrate prepared with an assay buffer B (50 mM tris-hydrochloric acid buffer (pH 7.5) including 200 mM sodium chloride, 5 mM calcium chloride, 10 μM zinc sulfate, and 0.05% PLURONIC F-68), then mixing 90 μL of a TACE enzyme solution prepared with an assay buffer A (50 mM tris-hydrochloric acid buffer (pH 7.5) including 200 mM sodium chloride, 5 mM calcium chloride, 10 μM zinc sulfate, and 2 mg/mL bovine serum albumin) and reacting at 37° C. for 1.5 hours. Enzyme activity was then determined by measuring with a fluorescence intensity meter (Labsystems, Fluoroskan Ascent) at an excitation wavelength of 355 nm and a measurement wavelength of 460 nm. The 50% inhibitory concentration (IC50) of the test substances was calculated by comparing enzyme activity in the presence and the absence of the test substance to determine the inhibition rate. Further, test substances having an IC50 strength of less than 100 nM were evaluated as “A”, and test substances having an IC50 strength of 100 nM or more were evaluated as “B”.
# T1 sequence (P78536 215-824): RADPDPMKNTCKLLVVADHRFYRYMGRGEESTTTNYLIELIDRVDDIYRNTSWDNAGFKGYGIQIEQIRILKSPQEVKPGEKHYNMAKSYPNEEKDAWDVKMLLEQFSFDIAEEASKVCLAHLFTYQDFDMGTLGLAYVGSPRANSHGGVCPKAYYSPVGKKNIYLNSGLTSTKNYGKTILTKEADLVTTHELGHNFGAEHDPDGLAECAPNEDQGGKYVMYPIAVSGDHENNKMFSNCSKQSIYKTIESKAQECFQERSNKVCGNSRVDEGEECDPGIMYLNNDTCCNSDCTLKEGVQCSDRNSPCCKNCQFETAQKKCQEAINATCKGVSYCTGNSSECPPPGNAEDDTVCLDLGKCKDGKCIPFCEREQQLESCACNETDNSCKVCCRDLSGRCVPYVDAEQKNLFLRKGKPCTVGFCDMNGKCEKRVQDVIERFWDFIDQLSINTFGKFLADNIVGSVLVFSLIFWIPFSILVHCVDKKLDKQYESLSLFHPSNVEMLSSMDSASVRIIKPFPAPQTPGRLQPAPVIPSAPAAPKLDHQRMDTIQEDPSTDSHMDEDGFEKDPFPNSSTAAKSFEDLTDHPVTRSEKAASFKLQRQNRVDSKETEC
row,IC50,Compound
1,< 0.1 µM,"COc1ccc(C2(Cn3cccc(C)c3=O)NC(=O)NC2=O)cc1F (racemic) [Compound I-14, 5-(3-fluoro-4-methoxyphenyl)-5-[(3-methyl-2-oxopyridin-1(2H)-yl)methyl]imidazolidine-2,4-dione]"
2,< 0.1 µM,Cc1cccn(CC2(c3cccc(Br)c3)NC(=O)NC2=O)c1=O (racemic) [Compound I-57]
3,< 0.1 µM,"CCCc1ccc(C2(Cn3cccc(C)c3=O)NC(=O)NC2=O)cc1 (racemic) [Compound I-45, 5-[(3-methyl-2-oxopyridin-1(2H)-yl)methyl]-5-(4-propylphenyl)imidazolidine-2,4-dione]"
4,< 0.1 µM,COc1ccc(Oc2ccc(C3(Cn4cccc(C)c4=O)NC(=O)NC3=O)cc2)cc1 (racemic) [Compound I-81]
5,< 0.1 µM,"COc1ccc(C2(Cn3cccc(Br)c3=O)NC(=O)NC2=O)cc1 (racemic) [Compound I-52, 5-[(3-bromo-2-oxopyridin-1(2H)-yl)methyl]-5-(4-methoxyphenyl)imidazolidine-2,4-dione]"
6,< 0.1 µM,Cc1cccn(CC2(c3cccc(-c4ccncc4)c3)NC(=O)NC2=O)c1=O (racemic) [Compound I-95]

# Continued, compound first:
row,Compound,IC50
1,"CCc1cccn(CC2(c3ccc(OC)cc3)NC(=O)NC2=O)c1=O (racemic) [Compound I-53, 5-[(3-ethyl-2-oxopyridin-1(2H)-yl)methyl]-5-(4-methoxyphenyl)imidazolidine-2,4-dione]",≥ 0.1 µM
2,Cc1cccn(CC2(c3cccc(F)c3F)NC(=O)NC2=O)c1=O (racemic) [Compound I-153],< 0.1 µM
3,"Cc1cccn(CC2(c3ccc(OC4CCCCC4)cc3)NC(=O)NC2=O)c1=O (racemic) [Compound I-37, 5-[4-(cyclohexyloxy)phenyl]-5-[(3-methyl-2-oxopyridin-1(2H)-yl)methyl]imidazolidine-2,4-dione]",< 0.1 µM
4,"Cc1cccn(CC2(c3cc4ccccc4o3)NC(=O)NC2=O)c1=O (racemic) [Compound I-6, 5-(benzofuran-2-yl)-5-[(3-methyl-2-oxopyridin-1(2H)-yl)methyl]imidazolidine-2,4-dione]",< 0.1 µM
5,Cc1cccn(CC2(c3ccc(Oc4cccnc4)c(F)c3)NC(=O)NC2=O)c1=O (racemic) [Compound I-122],< 0.1 µM
6,COc1ccc(C2(Cn3cccc(Cl)c3=O)NC(=O)NC2=O)cc1 (racemic) [Compound I-137],< 0.1 µM
7,CCOc1ccc(C2(Cn3cccc(C)c3=O)NC(=O)NC2=O)cc1 (racemic) [Compound I-119],< 0.1 µM
8,Cc1cc(C2(Cn3cccc(C)c3=O)NC(=O)NC2=O)cc(C)c1OC1CCCC1 (racemic) [Compound I-129],< 0.1 µM
9,"Cc1cccn(CC2(c3ccc4c(c3)CCCO4)NC(=O)NC2=O)c1=O (racemic) [Compound I-26, 5-(chroman-6-yl)-5-[(3-methyl-2-oxopyridin-1(2H)-yl)methyl]imidazolidine-2,4-dione]",< 0.1 µM
10,Cc1cccn(CC2(c3ccc(Sc4ccccc4)c(F)c3)NC(=O)NC2=O)c1=O (racemic) [Compound I-103],< 0.1 µM
11,O=C1NC(=O)C(Cn2cccc(Br)c2=O)(c2ccc(Cc3ccccc3)cc2)N1 (racemic) [Compound I-149],< 0.1 µM
12,Cc1cc(C2(Cn3cccc(C)c3=O)NC(=O)NC2=O)ccc1OC1C=CCCC1 (stereo not drawn) [Compound I-38],< 0.1 µM
13,"O=C1NC(=O)C(Cn2cccc(F)c2=O)(c2ccc(F)cc2)N1 (racemic) [Compound I-48, 5-[(3-fluoro-2-oxopyridin-1(2H)-yl)methyl]-5-(4-fluorophenyl)-imidazolidine-2,4-dione]",< 0.1 µM
14,"Cc1cccn(CC2(c3ccc(F)cc3)NC(=O)NC2=O)c1=O (racemic) [Compound I-15, 5-(4-fluorophenyl)-5-[(3-methyl-2-oxopyridin-1(2H)-yl)methyl]imidazolidine-2,4-dione]",< 0.1 µM
15,COc1ccc(C2(Cn3cccc(C(F)(F)F)c3=O)NC(=O)NC2=O)cc1 (racemic) [Compound I-141],< 0.1 µM
